In series [1] the target is T1, SsLAP (porcine leucine aminopeptidase) (Sus scrofa, UniProt P28839).
T1 construct: Leucyl aminopeptidase (SsLAP) was isolated from the porcine kidney; from tissue; host or cells: porcine kidney
T1 sequence (P28839 1-519): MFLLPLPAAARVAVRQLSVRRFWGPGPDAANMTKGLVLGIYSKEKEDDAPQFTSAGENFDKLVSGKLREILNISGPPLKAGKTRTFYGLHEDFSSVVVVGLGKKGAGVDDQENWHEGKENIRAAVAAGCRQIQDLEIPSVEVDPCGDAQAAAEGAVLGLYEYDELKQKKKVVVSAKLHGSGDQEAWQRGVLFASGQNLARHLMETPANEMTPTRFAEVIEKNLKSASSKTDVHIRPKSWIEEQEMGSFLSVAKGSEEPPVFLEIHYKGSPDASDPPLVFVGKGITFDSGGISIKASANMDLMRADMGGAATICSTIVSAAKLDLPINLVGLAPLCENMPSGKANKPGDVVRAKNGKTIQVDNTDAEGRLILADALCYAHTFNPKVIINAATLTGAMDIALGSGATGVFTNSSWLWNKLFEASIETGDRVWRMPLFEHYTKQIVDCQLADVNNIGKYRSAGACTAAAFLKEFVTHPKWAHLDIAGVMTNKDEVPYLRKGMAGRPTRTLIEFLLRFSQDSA
Put plainly: Inhibition of porcine kidney leucine aminopeptidase, L-Leu-p-nitroanilide hydrolysis, spectrophotometric at 405 nm. Particulars: for Ki: Dixon method, substrate L-Leu-p-nitroanilide, 37 °C, pH 8.5, mixture of SR and SS isomers. In kind it is biochemical. How it is done: (§1) The inhibition type, mechanism, and inhibition constants (Ki) were determined using graphical methods (see Figure 3 and Figure 4 and Tables S1 and S2). The inhibition type was determined by the Lineweaver-Burk plot based on the results of the inhibitory effect of the compounds on the hydrolytic activity of L-Leu-p-nitroanilide. […] It should be remembered that inhibitor activity was appointed for the racemic mixtures. All investigated compound 1–9 contains only S isomer in the P2 position, whereas in the P1 position, both R and S isomers were possible. Comparing the obtained activities of the investigated compounds 1–9 toward mammalian and plant aminopeptidases allows us to make some general observations. […] Additionally, SsLAP has better tolerance for the residue in the P1 position, whereas HvLAP prefers hPhe residue in this position.
Leucyl aminopeptidase (SsLAP) was isolated from the porcine kidney modified method described by Spackman and Ledeme. […] KM values correlate well with those given in the works 0.77 mM [58, 59]. The purity of the enzyme was confirmed by electrophoresis.
The enzymatic reaction in the presence of SsLAP was carried out at 37 °C in 7.5 mM TEA-HCl buffer (pH 8.5), containing 5 mM NaCl. The progress of the reaction was monitored spectrophotometrically (UV-VIS Spectrophotometer Cintra 303, GBC Scientific Equipment Ltd., Victoria, Australia) at a wavelength of 405 nm against a control sample containing no enzyme. The attempting mixture contained: Solution of the synthetic substrate L-Leu-p-nitroanilide in DMSO (substrate concentration: 1.5 to 0.2 mM—final concentration), 7.5 mM TEA-HCl buffer (pH 8.5), containing 5 mM NaCl, the solution of the potential inhibitor in reaction buffer (concentration of compound depending on the braking force), and enzyme (0.005 mg of the sample).
(§2) Kinetic constants KM, Vmax, and KI and type of inhibition was determined by methods Lineweaver-Burk, Dixon, Hanes-Woolf, and method half-inhibitory concentration. In the calculation, linearization methods used weighted regression. The values (Ki) given in the tables are the values calculated by the Dixon method. The Ki values calculated with all the above-mentioned methods close to each other. All measurements were made in three-fold repetitions. The graphs show the average values of the three measurements and Sb.

Series [2] has as its target HvLAP (aminopeptidase from barley seeds). As to the kind of experiment: Inhibition of barley seed aminopeptidase, L-Leu-p-nitroanilide hydrolysis, spectrophotometric at 405 nm. In kind it is biochemical, Hordeum vulgare. Particulars: Dixon method; substrate L-Leu-p-nitroanilide; 37 °C, pH 7.5; mixture of SR and SS isomers. How it is done:
as §1
The aminopeptidase from barley seeds (HvLAP) was isolated and purified according to the procedure described by Oszywa. […] The purity of the enzyme was confirmed by electrophoresis.
The enzymatic reaction in the presence of aminopeptidase from barley seeds (HvLAP) was carried out at 37 °C in 50 mM Tris-HCl buffer (pH 7.5), containing 50 mM NaCl, and 10 mM 2-mercaptoethanol. The progress of the reaction was monitored spectrophotometrically (UV-VIS Spectrophotometer Cintra 303, GBC Scientific Equipment Ltd., Victoria, Australia) at a wavelength of 405 nm against a control sample containing no enzyme. The attempting mixture contained: Solution of the synthetic substrate L-Leu-p-nitroanilide in DMSO (substrate concentration: 1.5 to 0.2 mM—final concentration), 50 mM Tris-HCl buffer (pH 7.5), containing 50 mM NaCl, and 10 mM 2-mercaptoethanol, the solution of the potential inhibitor in reaction buffer (concentration of compound depending on the braking force), and enzyme (0.028 mg of the sample).
as §2

Series [3] deals with T1, SsLAP (porcine leucine aminopeptidase). Also noted: method as in PMID 2568128, PMID 7126535. Particulars: read-out: KM given in the works; cited from earlier work.
Series [4] has as its system HvLAP (aminopeptidase from barley seeds). Also noted: method as in PMID 23434924, doi:10.1007/s11738-015-1789-8. The conditions noted are these: read-out: KM of the isolated enzyme on the synthetic substrate; cited from earlier work.

Like-named read-outs stand apart in the source and are kept apart here.

By Ki is commonly meant a dissociation constant, usually derived from enzyme kinetics or from competition with a known ligand. The melting point is the temperature, or range, at which the solid turns liquid. As for `COC(=O)CCP(=O)(O)C(CCc1ccccc1)NC(=O)[C@@H](N)Cc1ccc(C(=O)c2ccccc2)cc1` (stereo partly drawn) [Compound 8, Methyl 3-[(1-((S)-2-amino-3-(4-benzoylphenyl)propanamido)-3-phenylpropyl)phosphinyl]-propanoate], the melting point is 134 to 140 °C (dec.). Besides, in series [1], the inhibition constant Ki is 95 ± 9 µM. For the same compound, the Ki in series [2] was 159 ± 25 µM.

Take `COC(=O)CCP(=O)(O)C(CCc1ccccc1)NC(=O)[C@@H](N)CCSC` (stereo partly drawn) [Compound 1, Methyl 3-[(1-((S)-2-amino-4-(methylthio)butanamido)-3-phenylpropyl)phosphinyl]propanoate]: the melting point is 161 to 164 °C. Also, the Ki in series [1] amounted to 532 ± 46 µM. Moreover, the Ki in series [2] was found to be 38 ± 9 µM.

Compound `COC(=O)CCP(=O)(O)C(CC(C)C)NC(=O)[C@@H](N)CCO` (stereo partly shown) [Compound 3] returned a melting point of 174 to 176 °C. The inhibition constant (Ki) in series [1] stood at 14 ± 1 µM. For the same compound, the inhibition constant (Ki) in series [2] turned out to be 121 ± 19 µM.

As for `COC(=O)CCP(=O)(O)C(CC(C)C)NC(=O)[C@@H](N)CCSC` (stereo partly drawn) [Compound 2, Methyl 3-[(1-((S)-2-amino-4-(methylthio)butanamido)-3-methylbutyl)phosphinyl]propanoate], the melting point is 183 to 184 °C. Moreover, the Ki in series [1] amounted to 1090 ± 73 µM. Also, the Ki in series [2] was 649 ± 43 µM.

Consider `COC(=O)CCP(=O)(O)C(CCc1ccccc1)NC(=O)[C@@H](N)Cc1ccc(-c2ccccc2)cc1` (stereo partly drawn) [Compound 6, Methyl 3-[(1-((S)-3-([1,1′-biphenyl]-4-yl)-2-aminopropanamido)-3-phenylpropyl)phosphinyl]-propanoate], for which the melting point is 126 to 128 °C. For the same compound, in series [1], the inhibition constant Ki was 175 ± 3 µM. Besides, the Ki in series [2] was found to be 878 ± 70 µM.

Take `CSCC[C@H](N)C(=O)NC(CCc1ccccc1)P(=O)(O)CCC(=O)O` (stereo partly shown) [Compound 4]: the melting point was in the range of 180 to 185 °C. Further, the Ki in series [1] stood at 229 ± 40 µM. In addition, in series [2], the Ki stood at 228 ± 10 µM.

`CSCC[C@H](N)C(=O)NC(CC(C)C)P(=O)(O)CCC(=O)O` (stereo partly drawn) [Compound 5, 3-[(1-((S)-2-Amino-4-(methylthio)butanamido)-3-methylbutyl)phosphinyl]propanoic acid] registered a melting point of 218 to 222 °C. In addition, the inhibitory constant (Ki) in series [1] stood at 3620 ± 433 µM. Also, the Ki in series [2] came out at 1040 ± 102 µM.

`COC(=O)CCP(=O)(O)C(CC(C)C)NC(=O)[C@@H](N)Cc1ccc(-c2ccccc2)cc1` (stereo partly shown) [Compound 7]: the melting point lay within 150 to 152 °C. The Ki in series [1] came out at 130 ± 14 µM. Further, the “inhibits SsLAP stronger than HvLAP (selectivity)” value in series [1] (SsLAP over HvLAP) is given as about 10 times. Further, the Ki in series [2] amounted to 1300 ± 84 µM.

As usually defined, the Km is the concentration of substrate that gives half-maximal velocity. Take `CC(C)C[C@H](N)C(=O)Nc1ccc([N+](=O)[O-])cc1` [L-Leu-pNA, L-leucine-p-nitroanilide]: the Km in series [1] (SsLAP isolated from porcine kidney, read-out: KM of the isolated enzyme on the synthetic substrate) is 860 µM; in series [3], 770 µM; in series [4], 550 µM.

In the case of `COC(=O)CCP(=O)(O)C(CC(C)C)NC(=O)[C@@H](N)Cc1ccc(C(=O)c2ccccc2)cc1` (stereo partly drawn) [Compound 9, Methyl 3-[(1-((S)-2-amino-3-(4-benzoylphenyl)propanamido)-3-methylbutyl)phosphinyl]-propanoate], the melting point lay within 124 to 126 °C. The Ki in series [1] turned out to be 507 ± 31 µM. Moreover, in series [2], the inhibition constant (Ki) is 797 ± 76 µM.

The record behind these values is publication PMC8151835, “Phosphinotripeptidic Inhibitors of Leucylaminopeptidases” (International Journal of Molecular Sciences, 2021).
